From paper PMC7343282, “Tissue Distribution of Several Series of Cationic Surfactants in Rainbow Trout (Oncorhynchus mykiss) Following Exposure via Water” (Environmental Science & Technology, 2020)

Assays:
[1] = tested on: rainbow trout (Oncorhynchus mykiss); assay: Contribution of tissues to fish body burden; type: in vivo; conditions: for Contribution of Blood to the fish's body burden / Contribution of Gills to the fish's body burden / Contribution of Liver to the fish's body burden / Contribution of Mucus to the fish's body burden / Contribution of Other tissue (all apart from blood, liver, gills and skin; muscle concentration assumed) to body burden / Contribution of Skin to the fish's body burden: fraction; for % contribution to body burden, Gills / % contribution to body burden, Mucus / % contribution to body burden, Liver / % contribution to body burden, Skin / % contribution to body burden, Muscle: mean across fish, Figure 1; for % contribution to body burden, Liver / % contribution to body burden, Skin / % contribution to body burden, Muscle: Q10, Q14 maximum estimates; for % contribution to body burden, Muscle: includes all tissues not specifically analyzed
Source text: To calculate the quantity of the test chemical in the different tissues, the amount of each tissue in the fish was estimated and multiplied by the concentration in that tissue. The test chemical quantities in the different tissues were then summed to give the body burden in each fish. The total weight of the fish and the weight of the liver and gills were available from the dissection (Table S16). For skin and mucus, the estimated outer surface area of the fish was used. We note that the distinction between mucus and skin is an operational one determined by the extraction method; mucus can be viewed as a more readily extracted fraction of the test chemical residues at the fish surface. The volume of blood was taken as 0.0495 mL g^–1 fish.[30] The remaining tissue (difference between the weight of the whole fish and the weight of liver, gills, skin, and blood) was assumed to have the concentration measured in the muscle. The contribution of the different tissues to the body burden is given for each fish in Table S17, and the average contribution across all fish is plotted in Figure 1. All of the tissues, with the exception of blood, contribute at least 10% of the body burden for at least half of the test chemicals. There is no consistent negative correlation between the fraction of chemical associated with blood, muscle, and liver (tissues where the residue originates entirely from systemic uptake) and alkyl chain length (a measure of hydrophobicity). Thus, although adsorption to fish surfaces appears to play a significant role, its contribution to body burden cannot be simply predicted from surfactant hydrophobicity. In the following, we examine uptake in individual tissues.

[2] = Table S2; cited from earlier work

CCCCCCCCCCCCCCCCN [P16, hexadecylamine]
Contribution of Blood to the fish's body burden ([1]; Fish #1): 0.013
Contribution of Gills to the fish's body burden ([1]; Fish #1): 0.62
Contribution of Liver to the fish's body burden ([1]; Fish #1): 0.11
Contribution of Mucus to the fish's body burden ([1]; Fish #1): 0.04
Contribution of Other tissue (all apart from blood, liver, gills and skin; muscle concentration assumed) to body burden ([1]; Fish #1): 0.14
Contribution of Skin to the fish's body burden ([1]; Fish #1): 0.08
Contribution of Blood to the fish's body burden ([1]; Fish #2): 0.011
Contribution of Gills to the fish's body burden ([1]; Fish #2): 0.57
Contribution of Liver to the fish's body burden ([1]; Fish #2): 0.14
Contribution of Mucus to the fish's body burden ([1]; Fish #2): 0.03
Contribution of Other tissue (all apart from blood, liver, gills and skin; muscle concentration assumed) to body burden ([1]; Fish #2): 0.13
Contribution of Skin to the fish's body burden ([1]; Fish #2): 0.12
Contribution of Blood to the fish's body burden ([1]; Fish #3): 0.012
Contribution of Liver to the fish's body burden ([1]; Fish #3): 0.12
Contribution of Mucus to the fish's body burden ([1]; Fish #3): 0.04
Contribution of Other tissue (all apart from blood, liver, gills and skin; muscle concentration assumed) to body burden ([1]; Fish #3): 0.15
Contribution of Skin to the fish's body burden ([1]; Fish #3): 0.10
Contribution of Blood to the fish's body burden ([1]; Fish #4): 0.010
Contribution of Gills to the fish's body burden ([1]; Fish #4): 0.50
Contribution of Liver to the fish's body burden ([1]; Fish #4): 0.15
Contribution of Mucus to the fish's body burden ([1]; Fish #4): 0.04
Contribution of Other tissue (all apart from blood, liver, gills and skin; muscle concentration assumed) to body burden ([1]; Fish #4): 0.18
Contribution of Skin to the fish's body burden ([1]; Fish #4): 0.12
Contribution of Blood to the fish's body burden ([1]; Fish #5): 0.008
Contribution of Gills to the fish's body burden ([1]; Fish #5): 0.65
Contribution of Liver to the fish's body burden ([1]; Fish #5): 0.08
Contribution of Mucus to the fish's body burden ([1]; Fish #5): 0.05
Contribution of Other tissue (all apart from blood, liver, gills and skin; muscle concentration assumed) to body burden ([1]; Fish #5): 0.11
Contribution of Skin to the fish's body burden ([1]; Fish #5): 0.10
Contribution of Blood to the fish's body burden ([1]; Fish #6): 0.016
Contribution of Gills to the fish's body burden ([1]; Fish #6): 0.58
Contribution of Liver to the fish's body burden ([1]; Fish #6): 0.11
Contribution of Mucus to the fish's body burden ([1]; Fish #6): 0.06
Contribution of Other tissue (all apart from blood, liver, gills and skin; muscle concentration assumed) to body burden ([1]; Fish #6): 0.11
Contribution of Skin to the fish's body burden ([1]; Fish #6): 0.13
Contribution of Blood to the fish's body burden ([1]; Mean): 0.012
Contribution of Gills to the fish's body burden ([1]; Mean): 0.58
Contribution of Liver to the fish's body burden ([1]; Mean): 0.12
Contribution of Mucus to the fish's body burden ([1]; Mean): 0.04
Contribution of Other tissue (all apart from blood, liver, gills and skin; muscle concentration assumed) to body burden ([1]; Mean): 0.13
Contribution of Skin to the fish's body burden ([1]; Mean): 0.11
Share of body burden present in gills and mucus ([1]; in vivo): at least 50%
% contribution to body burden, Gills [1]: 58%
% contribution to body burden, Mucus [1]: 4%
% contribution to body burden, Liver [1]: 12%
% contribution to body burden, Skin [1]: 11%
% contribution to body burden, Muscle [1]: 13%
pKa [2]: 10.5

CCCCCCCCCN(C)C [T9, N,N-dimethylnonylamine]
Contribution of Blood to the fish's body burden ([1]; Fish #1): 0.045
Contribution of Gills to the fish's body burden ([1]; Fish #1): 0.11
Contribution of Liver to the fish's body burden ([1]; Fish #1): 0.08
Contribution of Mucus to the fish's body burden ([1]; Fish #1): 0.12
Contribution of Other tissue (all apart from blood, liver, gills and skin; muscle concentration assumed) to body burden ([1]; Fish #1): 0.35
Contribution of Skin to the fish's body burden ([1]; Fish #1): 0.30
Contribution of Blood to the fish's body burden ([1]; Fish #2): 0.059
Contribution of Gills to the fish's body burden ([1]; Fish #2): 0.14
Contribution of Liver to the fish's body burden ([1]; Fish #2): 0.08
Contribution of Mucus to the fish's body burden ([1]; Fish #2): 0.12
Contribution of Other tissue (all apart from blood, liver, gills and skin; muscle concentration assumed) to body burden ([1]; Fish #2): 0.39
Contribution of Skin to the fish's body burden ([1]; Fish #2): 0.22
Contribution of Blood to the fish's body burden ([1]; Fish #3): 0.075
Contribution of Liver to the fish's body burden ([1]; Fish #3): 0.11
Contribution of Mucus to the fish's body burden ([1]; Fish #3): 0.09
Contribution of Other tissue (all apart from blood, liver, gills and skin; muscle concentration assumed) to body burden ([1]; Fish #3): 0.43
Contribution of Skin to the fish's body burden ([1]; Fish #3): 0.17
Contribution of Blood to the fish's body burden ([1]; Fish #4): 0.046
Contribution of Gills to the fish's body burden ([1]; Fish #4): 0.15
Contribution of Liver to the fish's body burden ([1]; Fish #4): 0.04
Contribution of Mucus to the fish's body burden ([1]; Fish #4): 0.14
Contribution of Other tissue (all apart from blood, liver, gills and skin; muscle concentration assumed) to body burden ([1]; Fish #4): 0.38
Contribution of Skin to the fish's body burden ([1]; Fish #4): 0.24
Contribution of Blood to the fish's body burden ([1]; Fish #5): 0.056
Contribution of Gills to the fish's body burden ([1]; Fish #5): 0.14
Contribution of Liver to the fish's body burden ([1]; Fish #5): 0.18
Contribution of Mucus to the fish's body burden ([1]; Fish #5): 0.08
Contribution of Other tissue (all apart from blood, liver, gills and skin; muscle concentration assumed) to body burden ([1]; Fish #5): 0.35
Contribution of Skin to the fish's body burden ([1]; Fish #5): 0.19
Contribution of Blood to the fish's body burden ([1]; Fish #6): 0.062
Contribution of Gills to the fish's body burden ([1]; Fish #6): 0.11
Contribution of Liver to the fish's body burden ([1]; Fish #6): 0.26
Contribution of Mucus to the fish's body burden ([1]; Fish #6): 0.08
Contribution of Other tissue (all apart from blood, liver, gills and skin; muscle concentration assumed) to body burden ([1]; Fish #6): 0.33
Contribution of Skin to the fish's body burden ([1]; Fish #6): 0.17
Contribution of Blood to the fish's body burden ([1]; Mean): 0.057
Contribution of Gills to the fish's body burden ([1]; Mean): 0.13
Contribution of Liver to the fish's body burden ([1]; Mean): 0.13
Contribution of Mucus to the fish's body burden ([1]; Mean): 0.10
Contribution of Other tissue (all apart from blood, liver, gills and skin; muscle concentration assumed) to body burden ([1]; Mean): 0.37
Contribution of Skin to the fish's body burden ([1]; Mean): 0.21
Share of body burden in interior tissues (blood, liver, and muscle) ([1]; in vivo): more than half
% contribution to body burden, Gills [1]: 13%
% contribution to body burden, Mucus [1]: 10%
% contribution to body burden, Liver [1]: 13%
% contribution to body burden, Skin [1]: 21%
% contribution to body burden, Muscle [1]: 37%
pKa [2]: 9.5
